Measurements: patent publication EP4818187A1, “COMPOUND AND USE THEREOF” (Ganzhou Hemay Pharmaceutical, Co., Ltd, priority 2023, dated 2025)

Legend:
[1] = tested on: SW620 (human colorectal cancer); test: In vitro inhibitory effect against human tumor cells (SRB); assay type: cell-based; details: SW-620, 72 h, 3 days
Procedure: (§1) Cells were cultured with 5% CO2 at 37°C and saturated humidity until they reached a logarithmic growth phase (usually adherent cells were nearly fully confluent). After removing adherent cells by trypsin/EDTA digestion, the cells were collected for subsequent experiments.
(§2) The cells were inoculated into a 96-well cell culture plate (hereinafter referred to as the 96-well plate) based on the cell count shown in Table 2, cultured overnight to achieve cell adherence, and then, after different concentrations of the test compound were added, further cultured for a total of 3 days. Finally, the total cell protein in the assay wells was assayed by SRB, or the cell viability was assessed by MTT:
(§3) 2.1 Assaying total cell protein by SRB: the modification is based on the method in the literature (V. Vichai and K. Kirtikara. Sulforhodamine B colorimetric assay for cytotoxicity screening. Nature Protocols. 2006, 1: 1112-1116). Specific method: the culture medium was pipetted out from the wells, the cells were fixed with 10% trichloroacetic acid for more than 1 h, and trichloroacetic acid was removed; the cells were washed with H2O, and stained with 0.4% SRB for 15-30 min; after excess SRB was removed, the cells were washed with 1% acetic acid; 100 µl of 10 mM tris(trihydroxymethylaminomethane) was added to dissolve the protein-bound SRB, followed by assay at a wavelength of 570 nm.
(§4) 2.3: 1-2 mg of β-glucuronidase was weighed, and dissolved in PBS to prepare 2 mg/mL stock solution. Prior to use, the stock solution was diluted with a complete medium to prepare 12.5 µg/mL enzyme working solution. For assay wells requiring the enzyme, 80 µL of the enzyme working solution was added, with the β-glucuronidase at a concentration of 1 µg/well; and for assay wells not requiring the enzyme, 80 µL of the complete medium was added.
(§5) 1-3 mg of the test compound was weighed, and dissolved in DMSO to prepare 20 mM stock solution. The stock solution was diluted in a 3-fold gradient with DMSO, then diluted 100-fold with RPMI1640 basal medium to obtain 10× working solutions, with a total of 8 concentrations. 20 µL of the 10× working solutions were add to the assay wells, with the final volume of each well of 200 µL, and with the DMSO at a concentration of 0.1%.
(§6) 2.4 Calculation of inhibitory activity of compound: the experiment includes a compound test group, a compound-free positive solvent control group (PC), and a negative solvent control group (NC) without cells and the compound. Inhibition rate = [1−(testvalue−NCmean)/(PCmean−NCmean)] × 100% [formula]
(§7) The mean and SD of the inhibition rate were obtained from replicate assay wells. A curve was plotted with the compound concentrations distributed in a logarithmic form as the abscissa and with the mean inhibition rates as the ordinate, and was fitted with a 4-parameter logistic equation. The compound concentration corresponding to 50% inhibition rate on the curve is the IC50 value. Table 2: Culture medium formulation and cell inoculation concentration for human tumor cell lines

[2] = tested on: A375 (human malignant melanoma); test: as above; assay type: cell-based; details: A-375, 72 h, 3 days
Procedure: as §1, §2, §3, §4, §5, §6, §7

[3] = tested on: MDA-MB-468 (human triple-negative breast cancer); test: as above; assay type: cell-based; details: MDA-MB-468, 72 h, MDA-MB-468, SRB, 3 days
Procedure: as §1, §2, §3, §4, §5, §6, §7

[4] = tested on: HCC827 (human non-small cell lung cancer); test: as above; assay type: cell-based; details: HCC827, 72 h, 3 days
Procedure: as §1, §2, §3, §4, §5, §6, §7

[5] = tested on: HepG2 (human liver cancer cell); test: as above; assay type: cell-based; details: HepG2, 72 h, 3 days
Procedure: as §1, §2, §3, §4, §5, §6, §7

[6] = tested on: 22RV1 (human prostate cancer); test: as above; assay type: cell-based; details: 22Rv1, 72 h, 22RV1, SRB, 3 days
Procedure: as §1, §2, §3, §4, §5, §6, §7

[7] = tested on: BxPC-3 (human pancreatic cancer in situ); test: In vitro inhibitory effect against human tumor cells (MTT or SRB); assay type: cell-based; details: BXPC-3, 72 h, BxPC-3, test method printed MTT (head: SRB), 3 days
Procedure: as §1, §2, §3
(§8) 2.2 Assaying cell viability by MTT: the modification is based on the method in the literature (J. Carmichael, W. DeGraff, A. Gazdar et al., Evaluation of a tetrazolium-based semiautomated colorimetric assay: assessment of chemosensitivity testing. Cancer Research. 1987, 47: 936-942). Specific method: For well-adherent cells: the medium was pipetted out, 100 µL of a basal medium containing 0.5 mg/mL MTT (medium free of fetal bovine serum (FBS) and other additives) was added to each well, and culture was continued for additional 3 h. The MTT-containing basal medium was pipetted out, and 100 µL of DMSO was added to each well to dissolve formazan, followed by assay at a wavelength of 490 nm.
(§9) For poorly-adherent cells: MTT solution was directly added to a concentration of 0.5 mg/mL, culture was continued for additional 3 h, and an equal volume of triple solvent was added to the system to dissolve formazan, followed by assay at a wavelength of 570 nm.
as §4, §5, §6, §7

[8] = tested on: human non-small cell lung cancer NCI-H1975; test: Biological Example 8: in vivo xenograft model of human non-small cell lung cancer NCI-H1975; parameters: species or system Balb/c-nu nude mice; details: nude mice
[9] = tested on: human ovarian cancer SK-OV-3; test: Biological Example 6: in vivo xenograft model of human ovarian cancer SK-OV-3; parameters: species or system Balb/c-nu nude mice; details: SK-OV-3 xenograft, nude mice, 0.8 mg/kg i.v. qw×3
[10] = tested on: HCT116 (human colorectal cancer); test: In vitro inhibitory effect against human tumor cells (MTT); assay type: cell-based; details: HCT-116, 72 h, 3 days
Procedure: as §1, §2, §8, §9, §4, §5, §6, §7

[11] = tested on: SK-OV-3 (human ovarian cancer); test: as above; assay type: cell-based; details: SK-OV-3, 72 h, SK-OV-3, MTT, 3 days
Procedure: as §1, §2, §8, §9, §4, §5, §6, §7

[12] = tested on: Fadu (human pharyngeal squamous cell carcinoma); test: as above; assay type: cell-based; details: 72 h, 3 days
Procedure: as §1, §2, §8, §9, §4, §5, §6, §7

[13] = tested on: NCI-N87 (human gastric cancer cell); test: as above; assay type: cell-based; details: NCI-N87, 72 h, 3 days
Procedure: as §1, §2, §8, §9, §4, §5, §6, §7

[14] = tested on: NCI-H1975 (human non-small cell lung cancer); test: as above; assay type: cell-based; details: NCI-H1975, 72 h, 3 days
Procedure: as §1, §2, §8, §9, §4, §5, §6, §7

[15] = With addition of βGU (1 µg/well)

Compound `CC[C@H](C)[C@@H]([C@@H](CC(=O)N1CCC[C@H]1[C@H](OC)[C@@H](C)C(=O)N[C@H](C)[C@@H](O)c1ccccc1)OC)N(C)C(=O)[C@@H](NC(=O)[C@H](C(C)C)[N+](C)(C)Cc1ccc(O[C@@H]2O[C@H](C(=O)[O-])[C@@H](O)[C@H](O)[C@H]2O)cc1OCc1cn(CCCCCC(=O)Nc2ccc(-c3ccc(/N=N/c4ccc5c(S(=O)(=O)[O-])cc(S(=O)(=O)[O-])c(N)c5c4O)c(C)c3)cc2C)nn1)C(C)C.[Na+].[Na+]` [Example compound 4] has an IC50 [1, 15] of 3.4 nM, an IC50 ([1]; βGU-free) of 67 nM and an IC50 [2, 15] of 5 nM. The IC50 ([2]; βGU-free) was 66 nM, the IC50 [3, 15] was 0.96 nM and the IC50 ([3]; βGU-free) was 8.8 nM. For the same compound, the IC50 [4, 15] was 3.4 nM, the IC50 ([4]; βGU-free) was 54 nM and the IC50 [5, 15] was 4.7 nM. The IC50 ([5]; βGU-free) was 72 nM, the IC50 [6, 15] was 7 nM and the IC50 ([6]; βGU-free) was 115 nM. The IC50 [7, 15] was 1.9 nM, the IC50 ([7]; βGU-free) was 44 nM and the “Final body weight change (%)” value ([8]; 0.8 mg/kg i.v. qw×3) was 4.9%. The “Maximum body weight change (%)” value ([8]; 0.8 mg/kg i.v. qw×3) was 4.9, d24%, the “Relative volume RTV (x±S.D.)” value ([8]; 0.8 mg/kg i.v. qw×3) was 0.33±0.17 and the “T/C (%)” value ([8]; 0.8 mg/kg i.v. qw×3) was 2.7%. For the same compound, the “Tumor inhibition rate (%)” value ([8]; 0.8 mg/kg i.v. qw×3) was 97.3%, the “Tumor weight (g, x±S.D.)” value ([8]; 0.8 mg/kg i.v. qw×3) was 0.072 ± 0.046 g and the “Body weight (g, x±S.D.) End 24d” value ([8]; 0.8 mg/kg i.v. qw×3, End 24d) was 26.0 ± 1.1 g. The “Body weight (g, x±S.D.) Start” value ([8]; 0.8 mg/kg i.v. qw×3, Start) was 24.8 ± 0.8 g, the “Final body weight change (%)” value [9] was 4.2% and the “Maximum body weight change (%)” value [9] was 4.8, d17%. For the same compound, the “Relative volume RTV (x±S.D.)” value [9] was 0.79±0.79, the “T/C (%)” value [9] was 7.6% and the “Tumor inhibition rate (%)” value [9] was 96.0%. For the same compound, the “Tumor weight (g, x±S.D.)” value [9] was 0.055 ± 0.077 g, the “Body weight (g, x±S.D.) End” value ([9]; End) was 24.2 ± 0.9 g and the “Body weight (g, x±S.D.) Start” value ([9]; Start) was 23.3 ± 0.8 g. It also gave an IC50 [10, 15] of 6.6 nM, an IC50 ([10]; βGU-free) of 139 nM and an IC50 [11, 15] of 5.1 nM. The IC50 ([11]; βGU-free) was 215 nM, the IC50 [12, 15] was 1.7 nM and the IC50 ([12]; βGU-free) was 21 nM. It also gave an IC50 [13, 15] of 2.3 nM, an IC50 ([13]; βGU-free) of 58 nM and an IC50 [14, 15] of 5.5 nM. For the same compound, the IC50 ([14]; βGU-free) was 86 nM.
